{"source": "patent US4273869A", "about": "“Cystic fibrosis detection method” (The Regents of the University of Minnesota, priority 1979, dated 1981)", "tested_on": "fibroblasts from CF subjects, heterozygote carriers and controls", "test": "O2 consumption of skin fibroblast suspensions measured polarographically, with electron transport inhibitors", "format": "cell-based, human", "experimental": "Skin fibroblast strains from the upper arm were obtained from subjects with CF and age- and sex-matched controls and from obligate CF heterozygote parents and their age- and sex-matched controls. Cells were stored in liquid nitrogen at early passages and thawed for use as needed. In all but a few experiments, strains were passage matched. For O2 consumption studies and mitochondrial preparations, monolayers were grown in 285×115 mm roller bottles (Bellco Glass, N.J.). For NADH dehydrogenase studies, monolayers were grown in 75 cm^2 flasks (Falcon, Oxnard, Ca.). Monolayers were cultured in Eagle's minimal essential medium with Earle's salts plus L-glutamine (K. C. Biologicals, Inc., Lenexa, Kans.), supplemented with 10 percent fetal calf serum, 100 units per ml of penicillin, and 100 μg/ml of streptomycin (Gibco, Grand Island, N.Y.). The cultures were maintained at 37° in 95 percent air-5 percent CO2 atmosphere. Cells were harvested with trypsin-EDTA [(1:250 tryspin+0.2 g EDTA/1 (Gibco, Grand Island, N.Y.)].\nConfluent monolayers of fibroblasts as prepared in Example 1 were harvested by trypsin-EDTA digestion. Cells were pelleted by centrifugation at 600×g for 5 min, washed with 10 ml of cold Hank's Balanced Salt Solution (HBSS) containing 0.1 mg/ml bovine serum albumin and 10 mg/ml dextrose, pH 7.4. 100 μl aliquots of the washed cell suspension were taken for cell counting using a ZBI Coulter Counter. The washed cells were again pelleted by centrifugation and resuspended in 1 ml cold HBSS. O2 consumption was measured polarographically on a cell suspension of 1×10^7 cells in a final volume of 3 ml by an O2 electrode system (Clark model 53, Yellow Springs Instruments, Ohio). […] In these experiments the baseline O2 uptake rate was determined for each cell line. Prior to removing the cells from the electrode chamber, 100 μl of 100 μ M rotenone were added and O2 consumption recorded. […]\nThe change in O2 consumption rate caused by rotenone was recorded as percent of initial O2 consumption rate. Each point represents percent inhibition measured on one cell strain."}
{"smiles": "C=C(C)[C@H]1Cc2c(ccc3c2O[C@@H]2COc4cc(OC)c(OC)cc4[C@@H]2C3=O)O1", "note": "[rotenone]", "values": [{"measurement": "Inhibition of O2 consumption (change in O2 consumption rate as percent of initial rate)", "setting": "100 μl of 100 μM rotenone added to 1×10^7 cells in 3 ml, all cell strains tested", "value": "inhibited O2 consumption in all cell strains tested"}, {"measurement": "Relative inhibitory effect on O2 consumption among genotypes", "setting": "100 μl of 100 μM rotenone, CF, HZ (carrier) and control fibroblast strains, FIG. 5", "value": "CF>HZ>controls"}, {"measurement": "O2 consumption after treatment with the inhibitor, compared between genotypes", "setting": "cells treated with rotenone, CF subjects, carriers, controls", "value": "cells from cystic fibrosis subjects and carriers consume equal amounts of oxygen, as do controls"}]}
